The source made the active and inactive calls.
How the values were obtained:
[1] = target: T1, DNA repair protein RAD52 homolog (Homo sapiens, UniProt P43351); assay type: functional, biochemical
T1 sequence (P43351 whole entry): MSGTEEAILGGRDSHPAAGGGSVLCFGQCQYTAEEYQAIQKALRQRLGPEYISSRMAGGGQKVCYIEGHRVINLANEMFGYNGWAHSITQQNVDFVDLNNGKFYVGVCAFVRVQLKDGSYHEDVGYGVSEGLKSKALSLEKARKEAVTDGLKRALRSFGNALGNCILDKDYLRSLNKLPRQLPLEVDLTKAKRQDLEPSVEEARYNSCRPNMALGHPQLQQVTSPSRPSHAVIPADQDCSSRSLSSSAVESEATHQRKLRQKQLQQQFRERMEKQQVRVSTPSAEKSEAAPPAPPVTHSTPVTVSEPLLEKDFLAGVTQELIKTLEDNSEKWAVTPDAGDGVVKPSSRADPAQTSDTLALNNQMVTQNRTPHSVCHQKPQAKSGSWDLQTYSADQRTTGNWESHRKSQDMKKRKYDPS

[2] = target: T2, Bcl-2-related protein A1 (Mus musculus, UniProt Q07440); assay type: functional;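 further: confirmatory dose–response counterscreen on Bfl-1, used to check hits from a UBC13 polyubiquitin inhibitor campaign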
T2 sequence (Q07440 whole entry): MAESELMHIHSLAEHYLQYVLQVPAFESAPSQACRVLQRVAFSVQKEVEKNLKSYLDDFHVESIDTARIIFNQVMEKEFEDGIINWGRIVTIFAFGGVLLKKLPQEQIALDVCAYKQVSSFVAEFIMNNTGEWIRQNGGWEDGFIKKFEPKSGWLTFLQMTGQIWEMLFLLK

[3] = target: T3, Ubiquitin-conjugating enzyme E2 N (Homo sapiens, UniProt P61088); assay type: functional
T3 sequence (P61088 whole entry): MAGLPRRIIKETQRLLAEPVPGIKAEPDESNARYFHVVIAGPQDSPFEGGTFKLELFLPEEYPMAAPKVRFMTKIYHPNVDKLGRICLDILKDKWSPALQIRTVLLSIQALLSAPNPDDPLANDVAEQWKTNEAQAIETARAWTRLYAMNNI

[4] = target: Nonstructural protein 1 (Influenza A virus, UniProt Q194T2); assay type: functional, Influenza A virus (A/California/07/2009(H1N1))
Sequence of Nonstructural protein 1 (Q194T2 whole entry): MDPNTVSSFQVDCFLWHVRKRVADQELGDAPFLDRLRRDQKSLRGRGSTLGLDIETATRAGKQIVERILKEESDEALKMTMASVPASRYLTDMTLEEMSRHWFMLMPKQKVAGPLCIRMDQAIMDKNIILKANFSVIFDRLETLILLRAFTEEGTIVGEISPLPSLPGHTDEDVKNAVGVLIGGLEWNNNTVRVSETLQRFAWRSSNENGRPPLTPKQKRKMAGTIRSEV

[5] = target: T3, Ubiquitin-conjugating enzyme E2 N; assay type: functional; remark: listed apart in the source
[6] = target: Mu-type opioid receptor (Homo sapiens, UniProt P35372); test: (§1) Counterscreen for agonists of heterodimerization of the mu 1 (OPRM1) and delta 1 (OPRD1) opioid receptors: Luminescence-based cell-based high throughput dose response assay to identify agonists of OPRM1 homodimerization.; assay type: functional
Sequence of Mu-type opioid receptor (P35372 whole entry): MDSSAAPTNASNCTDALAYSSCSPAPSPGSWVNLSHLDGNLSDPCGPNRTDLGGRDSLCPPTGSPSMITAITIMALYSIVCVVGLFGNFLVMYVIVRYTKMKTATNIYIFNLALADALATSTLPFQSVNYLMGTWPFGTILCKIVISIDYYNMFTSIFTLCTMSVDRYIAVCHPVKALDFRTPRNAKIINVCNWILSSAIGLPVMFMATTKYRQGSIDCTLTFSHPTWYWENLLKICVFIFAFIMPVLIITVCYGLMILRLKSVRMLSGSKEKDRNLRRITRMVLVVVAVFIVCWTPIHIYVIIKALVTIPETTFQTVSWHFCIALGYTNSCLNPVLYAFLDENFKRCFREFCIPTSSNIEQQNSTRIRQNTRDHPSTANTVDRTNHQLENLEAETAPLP

[7] = target: T4, Short transient receptor potential channel 4 (Mus musculus, UniProt Q9QUQ5); test: mouse TRPC4 channel activators, dose response, cell-based, HEK293 TRPC4/mu-opioid, Fluo-4 calcium (AID 434937); assay type: functional
T4 sequence (Q9QUQ5 whole entry): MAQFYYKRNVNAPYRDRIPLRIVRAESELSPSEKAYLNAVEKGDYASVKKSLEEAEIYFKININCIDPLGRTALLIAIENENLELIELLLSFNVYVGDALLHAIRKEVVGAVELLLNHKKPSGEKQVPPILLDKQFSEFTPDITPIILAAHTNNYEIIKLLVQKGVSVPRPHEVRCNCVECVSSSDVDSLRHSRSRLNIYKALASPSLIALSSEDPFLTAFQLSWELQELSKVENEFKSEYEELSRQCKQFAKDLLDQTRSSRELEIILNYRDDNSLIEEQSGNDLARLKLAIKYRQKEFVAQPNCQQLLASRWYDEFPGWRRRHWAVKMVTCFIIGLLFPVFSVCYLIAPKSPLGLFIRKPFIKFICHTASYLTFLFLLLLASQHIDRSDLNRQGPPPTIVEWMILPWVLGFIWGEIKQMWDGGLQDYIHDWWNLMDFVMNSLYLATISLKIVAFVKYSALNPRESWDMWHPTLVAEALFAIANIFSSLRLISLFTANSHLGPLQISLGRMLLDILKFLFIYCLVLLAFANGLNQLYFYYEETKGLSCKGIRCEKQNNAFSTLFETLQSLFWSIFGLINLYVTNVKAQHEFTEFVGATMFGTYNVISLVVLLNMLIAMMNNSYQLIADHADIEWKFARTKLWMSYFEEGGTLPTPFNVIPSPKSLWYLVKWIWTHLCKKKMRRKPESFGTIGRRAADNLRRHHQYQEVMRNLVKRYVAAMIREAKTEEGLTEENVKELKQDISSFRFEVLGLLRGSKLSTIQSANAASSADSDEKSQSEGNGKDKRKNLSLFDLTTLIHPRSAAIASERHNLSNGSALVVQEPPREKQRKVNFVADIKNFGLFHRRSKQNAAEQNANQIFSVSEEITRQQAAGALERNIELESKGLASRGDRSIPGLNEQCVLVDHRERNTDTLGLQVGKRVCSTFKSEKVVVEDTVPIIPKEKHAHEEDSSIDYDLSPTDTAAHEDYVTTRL

[8] = target: Delta-type opioid receptor (Homo sapiens, UniProt P41143); test: as §1, with “of OPRD1” for “of OPRM1”, “homodimerization. [Related pubchem assays (depositor defined):AID504326, AID504355, AID504692, AID504904, AID504905]” for “homodimerization.”; assay type: functional
Sequence of Delta-type opioid receptor (P41143 whole entry): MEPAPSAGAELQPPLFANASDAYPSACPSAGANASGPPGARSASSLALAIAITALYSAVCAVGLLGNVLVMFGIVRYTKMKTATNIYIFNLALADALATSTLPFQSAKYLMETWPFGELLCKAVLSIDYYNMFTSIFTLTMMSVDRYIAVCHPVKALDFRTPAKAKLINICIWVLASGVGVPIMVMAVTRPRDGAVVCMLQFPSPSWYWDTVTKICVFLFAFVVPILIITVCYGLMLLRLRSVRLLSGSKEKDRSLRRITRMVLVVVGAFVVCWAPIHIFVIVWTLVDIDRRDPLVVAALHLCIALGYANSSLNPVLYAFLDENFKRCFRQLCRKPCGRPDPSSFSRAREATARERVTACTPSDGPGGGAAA

[9] = target: 5-hydroxytryptamine receptor 5A (Homo sapiens, UniProt P47898); test: Counterscreen for agonists of OPRM1-OPRD1 heterodimerization: luminescence-based cell-based high throughput dose response assay to identify agonists of 5-hydroxytryptamine (serotonin) 5A receptor (HTR5A). [Related pubchem assays (depositor defined):AID504326, AID504355, AID504692, AID504904, AID504905]; assay type: functional
Sequence of 5-hydroxytryptamine receptor 5A (P47898 whole entry): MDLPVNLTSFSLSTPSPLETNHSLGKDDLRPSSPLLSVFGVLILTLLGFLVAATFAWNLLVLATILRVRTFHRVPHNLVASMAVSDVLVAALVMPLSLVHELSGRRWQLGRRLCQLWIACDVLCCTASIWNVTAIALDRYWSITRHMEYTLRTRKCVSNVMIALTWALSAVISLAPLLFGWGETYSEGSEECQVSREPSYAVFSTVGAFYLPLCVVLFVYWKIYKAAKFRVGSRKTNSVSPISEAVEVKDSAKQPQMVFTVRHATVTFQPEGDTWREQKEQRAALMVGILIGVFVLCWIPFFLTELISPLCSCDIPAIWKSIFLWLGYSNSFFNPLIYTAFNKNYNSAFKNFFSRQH

[10] = target: T5, Alkaline phosphatase, tissue-nonspecific isozyme (Homo sapiens, UniProt P05186); test: TNAP enzyme inhibition by screening hits, dose response, selectivity assay for mouse IAP inhibitor project, biochemical, human TNAP, uHTS hits (AID 488906); assay type: functional
T5 sequence (P05186 whole entry): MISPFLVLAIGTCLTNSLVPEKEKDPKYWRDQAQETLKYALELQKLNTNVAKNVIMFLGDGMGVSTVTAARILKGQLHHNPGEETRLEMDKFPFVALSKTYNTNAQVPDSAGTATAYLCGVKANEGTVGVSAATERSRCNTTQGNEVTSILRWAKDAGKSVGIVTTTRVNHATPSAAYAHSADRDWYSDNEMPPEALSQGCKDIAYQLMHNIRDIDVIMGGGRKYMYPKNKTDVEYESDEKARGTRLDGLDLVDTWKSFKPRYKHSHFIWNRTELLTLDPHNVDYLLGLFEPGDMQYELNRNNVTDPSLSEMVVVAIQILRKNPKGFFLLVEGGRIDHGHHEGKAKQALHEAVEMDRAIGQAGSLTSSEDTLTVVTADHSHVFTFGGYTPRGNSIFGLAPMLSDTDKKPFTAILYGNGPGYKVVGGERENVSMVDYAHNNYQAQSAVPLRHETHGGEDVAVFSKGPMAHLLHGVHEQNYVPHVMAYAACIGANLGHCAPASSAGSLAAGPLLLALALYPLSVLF

[11] = target: Intestinal-type alkaline phosphatase (Mus musculus, UniProt P24822); test: PubChem AID 488785; assay type: functional
Sequence of Intestinal-type alkaline phosphatase (Mus musculus, UniProt P24822) (P24822 whole entry): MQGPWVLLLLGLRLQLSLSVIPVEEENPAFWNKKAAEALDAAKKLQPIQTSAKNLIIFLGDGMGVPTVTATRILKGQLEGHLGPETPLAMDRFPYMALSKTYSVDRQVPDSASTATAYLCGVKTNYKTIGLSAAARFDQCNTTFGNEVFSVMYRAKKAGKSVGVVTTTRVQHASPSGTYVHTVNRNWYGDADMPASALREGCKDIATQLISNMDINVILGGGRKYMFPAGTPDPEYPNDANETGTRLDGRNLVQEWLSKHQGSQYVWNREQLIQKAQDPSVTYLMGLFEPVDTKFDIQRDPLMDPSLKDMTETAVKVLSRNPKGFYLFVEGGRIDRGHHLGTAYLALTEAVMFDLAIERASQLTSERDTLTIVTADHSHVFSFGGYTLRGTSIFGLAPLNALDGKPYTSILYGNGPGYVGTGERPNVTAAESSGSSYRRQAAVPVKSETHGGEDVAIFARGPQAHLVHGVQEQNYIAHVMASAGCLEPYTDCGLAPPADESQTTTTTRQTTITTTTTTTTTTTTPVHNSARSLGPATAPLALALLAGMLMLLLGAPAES

[12] = target: Intestinal-type alkaline phosphatase (Homo sapiens, UniProt P09923); test: inhibition of human intestinal alkaline phosphatase – biochemical, dose response (AID 488876); assay type: functional
Sequence of Intestinal-type alkaline phosphatase (Homo sapiens, UniProt P09923) (P09923 whole entry): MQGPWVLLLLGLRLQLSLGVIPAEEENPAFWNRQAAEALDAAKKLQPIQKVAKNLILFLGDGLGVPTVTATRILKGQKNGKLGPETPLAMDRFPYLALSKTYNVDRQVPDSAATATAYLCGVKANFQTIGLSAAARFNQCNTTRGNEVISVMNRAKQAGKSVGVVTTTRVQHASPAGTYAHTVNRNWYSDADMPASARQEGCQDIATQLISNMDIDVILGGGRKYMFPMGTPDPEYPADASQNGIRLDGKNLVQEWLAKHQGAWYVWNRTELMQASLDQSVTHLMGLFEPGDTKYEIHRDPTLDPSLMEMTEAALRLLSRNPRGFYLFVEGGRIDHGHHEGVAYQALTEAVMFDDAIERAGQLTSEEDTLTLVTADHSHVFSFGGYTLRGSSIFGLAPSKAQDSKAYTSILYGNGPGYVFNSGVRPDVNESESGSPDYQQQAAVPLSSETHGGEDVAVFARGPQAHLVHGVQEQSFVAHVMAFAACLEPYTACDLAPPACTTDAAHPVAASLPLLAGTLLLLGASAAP

[13] = system: Escherichia coli; test: microbe, parasite or virus in culture
[14] = target: Paired box protein Pax-8 (Homo sapiens, UniProt Q06710); test: inhibitors of PAX8-driven TPO luciferase reporter, dose response, RMG-I cells, cherry-pick (AID 687027); assay type: functional, cell-based;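 further: luciferase reporter driven by Pax8 target thyroperoxidase promoter measured by SteadyGlo luminescence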
Sequence of Paired box protein Pax-8 (Q06710 whole entry): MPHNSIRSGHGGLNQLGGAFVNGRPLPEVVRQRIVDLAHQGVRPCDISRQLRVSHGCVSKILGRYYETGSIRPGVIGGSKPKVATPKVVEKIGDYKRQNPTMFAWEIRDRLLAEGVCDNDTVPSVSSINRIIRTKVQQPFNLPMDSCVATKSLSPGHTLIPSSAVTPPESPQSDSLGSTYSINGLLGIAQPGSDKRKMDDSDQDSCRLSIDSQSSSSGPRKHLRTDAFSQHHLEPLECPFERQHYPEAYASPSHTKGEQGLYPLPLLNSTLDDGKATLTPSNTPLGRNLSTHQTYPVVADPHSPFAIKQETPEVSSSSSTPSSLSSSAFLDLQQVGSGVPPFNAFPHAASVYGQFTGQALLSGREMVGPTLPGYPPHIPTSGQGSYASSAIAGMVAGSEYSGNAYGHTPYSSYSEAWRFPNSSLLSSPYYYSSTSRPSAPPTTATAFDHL

[15] = target: T6, High affinity choline transporter 1 (Homo sapiens, UniProt Q9GZV3); test: CHT inhibitors, dose response, cell-based, 5-point CRC, membrane potential dye (AID 504840); assay type: functional
T6 sequence (Q9GZV3 whole entry): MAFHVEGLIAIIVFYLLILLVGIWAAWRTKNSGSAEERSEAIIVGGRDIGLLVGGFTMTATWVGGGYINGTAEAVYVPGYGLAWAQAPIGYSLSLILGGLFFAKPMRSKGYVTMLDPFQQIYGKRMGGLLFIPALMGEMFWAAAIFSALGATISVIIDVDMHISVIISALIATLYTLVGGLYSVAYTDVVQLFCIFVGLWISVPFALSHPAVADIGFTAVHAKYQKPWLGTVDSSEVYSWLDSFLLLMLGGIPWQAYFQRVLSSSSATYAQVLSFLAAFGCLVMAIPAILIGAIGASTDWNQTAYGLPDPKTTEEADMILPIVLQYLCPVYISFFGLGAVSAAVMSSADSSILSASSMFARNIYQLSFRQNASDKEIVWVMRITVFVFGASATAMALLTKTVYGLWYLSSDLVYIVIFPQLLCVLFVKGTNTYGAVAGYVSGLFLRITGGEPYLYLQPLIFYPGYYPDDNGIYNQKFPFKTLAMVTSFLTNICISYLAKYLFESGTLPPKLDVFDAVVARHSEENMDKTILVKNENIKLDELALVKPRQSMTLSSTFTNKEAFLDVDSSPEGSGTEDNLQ

[16] = target: T6, High affinity choline transporter 1; test: CHT inhibitors, dose response, cell-based, 10-point CRC, membrane potential dye (AID 588401); assay type: functional;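 further: membrane potential dye fluorescence of choline-evoked depolarization via CHT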
[17] = system: HEK293; test: cytotoxicity in HEK293T NF-kB-Luc cells, SAR follow-up, cytotoxicity control for NF-kB activator project, cell-based, resazurin fluorescence (AID 493251); assay type: functional; conditions: Homo sapiens
[18] = target: Cytochrome P450 2C9 (Homo sapiens, UniProt P11712)
Sequence of Cytochrome P450 2C9 (P11712 whole entry): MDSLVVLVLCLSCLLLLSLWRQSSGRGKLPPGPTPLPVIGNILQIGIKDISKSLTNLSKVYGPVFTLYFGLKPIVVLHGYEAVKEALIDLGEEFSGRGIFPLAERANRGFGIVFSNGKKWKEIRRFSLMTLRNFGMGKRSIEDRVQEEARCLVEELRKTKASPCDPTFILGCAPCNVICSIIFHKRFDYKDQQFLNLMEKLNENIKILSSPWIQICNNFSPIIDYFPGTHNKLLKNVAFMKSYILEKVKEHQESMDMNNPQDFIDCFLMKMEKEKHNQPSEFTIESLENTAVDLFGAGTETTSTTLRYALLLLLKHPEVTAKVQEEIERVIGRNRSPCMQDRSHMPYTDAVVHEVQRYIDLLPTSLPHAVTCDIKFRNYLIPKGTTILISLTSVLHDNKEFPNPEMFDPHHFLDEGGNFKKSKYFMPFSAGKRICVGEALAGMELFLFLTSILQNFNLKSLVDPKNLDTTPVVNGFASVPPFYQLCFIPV

[19] = target: Cytochrome P450 2D6 (Homo sapiens, UniProt P10635);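 further: CYP2D6 member of a cytochrome P450 panel assay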
Sequence of Cytochrome P450 2D6 (P10635 whole entry): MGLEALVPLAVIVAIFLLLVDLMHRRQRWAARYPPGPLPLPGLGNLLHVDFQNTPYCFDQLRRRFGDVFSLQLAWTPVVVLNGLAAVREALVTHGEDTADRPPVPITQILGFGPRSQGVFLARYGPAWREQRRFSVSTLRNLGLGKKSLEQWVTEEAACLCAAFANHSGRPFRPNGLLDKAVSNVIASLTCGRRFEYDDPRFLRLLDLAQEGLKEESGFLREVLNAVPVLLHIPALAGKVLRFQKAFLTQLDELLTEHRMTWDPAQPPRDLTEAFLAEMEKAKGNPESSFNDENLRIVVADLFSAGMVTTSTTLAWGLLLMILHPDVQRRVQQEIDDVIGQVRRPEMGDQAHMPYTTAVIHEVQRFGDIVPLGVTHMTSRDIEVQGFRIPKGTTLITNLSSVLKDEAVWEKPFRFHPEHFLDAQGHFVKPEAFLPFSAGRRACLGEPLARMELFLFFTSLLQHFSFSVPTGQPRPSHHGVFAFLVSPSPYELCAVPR

[20] = system: Escherichia coli; test: microbe, parasite or virus in culture; remark: listed apart in the source

In the case of `CN(C)CCCNC(=O)c1ccc(-c2cc(O)c3ncccc3c2)cc1`, the AC50 [1] was 0.849 µM (active), the IC50 [2] was 7.49 µM (active) and the IC50 [3] was 3.15 µM (active). For the same compound, the IC50 [4] was 4.25 µM (active) and the IC50 [5] was 3.89 µM (active).

With `CN1C2C=C(N(CCc3ccccc3)C(=O)c3ccc(Cl)cc3)CC1CC2` (stereo unspecified) the EC50 [6] was 67.3 µM (inactive), the EC50 [7] was 0.531 µM (active) and the EC50 [8] was > 92.5 µM (inactive). The EC50 [9] was > 92.5 µM (inactive).

For `O=C1NN(c2cccc(Br)c2)C(=O)/C1=C/c1ccc(-c2cc([N+](=O)[O-])ccc2O)o1`, the IC50 [10] was > 100 µM (inactive), the IC50 [11] was 4.7 µM (active) and the IC50 [12] was > 100 µM (inactive).

`CC(C)=CCC/C(C)=C/CNC(=O)C[C@H]1C[C@H](C(=O)N2CCOCC2)[C@@]2(C)c3[nH]c4ccc(Cl)cc4c3CCN2C1=O` was tested, and the AC50 [13] was 112 µM (active) and the AC50 [14] was 11.8 µM (active).

With `CC1CCCC(NC(=O)c2ccc(C/N=c3\c(N4CCCC4)c(O)c3=O)cc2)C1C` (stereo unspecified) the IC50 [15] was 0.851 µM (active) and the IC50 [16] was 0.501 µM (active).

With `CCN1CCN(c2ccc([N+](=O)[O-])c(Sc3nc4ccccc4[nH]3)c2)CC1` the EC50 [6] was > 92.5 µM (inactive), the EC50 [8] was 4.1 µM (active) and the EC50 [9] was > 92.5 µM (inactive).

For `CCNC(=O)CCc1nc(-c2ccc(OCC)cc2)no1`, the IC50 [17] was > 80 µM (inactive).

In the case of `N=C1CCCN1CC(=O)c1ccc(Br)cc1`, the IC50 [15] was 6.07 µM (active) and the IC50 [16] was 1.06 µM (active).

For `COc1ccc(CNc2ccnc(-c3cccc(NS(C)(=O)=O)c3)n2)c(OC)c1`, the AC50 [18] was “inconclusive” and the AC50 [19] was 12.6 µM (inconclusive).

With `C[C@H]1c2cccc(O)c2C(=O)C2C(=O)C3(O)C(=O)C(C(N)=O)C(=O)[C@@H](N(C)C)[C@@H]3[C@@H](O)[C@@H]21` (stereo partly specified) the AC50 [20] was 12.3 µM (active) and the AC50 [13] was 0.882 µM (active).
